From article PMC4728560 (Scientific Reports, 2016)

Key:
BAX = test: In cellulo BRET between TCTP and YFP-fused BAX; type: cell-based; conditions: MCF-7 cells; donor TCTP, acceptor YFP-fused BAX
Experimental: BRET assays were performed as indicated in Bah et al.[41]. See Supplementary Information for full details.
-3Δ before cloning into a pnEA -TH plasmid for expression of an N-terminal 6His fusion protein using NdeI and BamHI restriction sites25. The cDNA of human Bcl-xL protein, target gene bank number BC019307, was ordered from PlasmID (DANA-FARBER/HARVARD CANCER CENTER). Bcl-xL(Δ27-81ΔCT) (deletion of residues 27-81 and C-terminal 24 residues) was cloned in a pnEA-TH25 plasmid for expression as a N-terminal 6His fusion protein. Primers used for the deletion of the C-terminal part are 5'- […]
TTTCG-3', including NdeI and BglII restriction sites respectively. […]
BRET assays were performed as indicated in Bah et al.26. […] Light emissions at 475 nm and 530 nm were measured sequentially using the Mithras ﬂuorescence luminescence detector […]
LB 940 (Berthold, Thoiry, France) after adding the luciferase substrate coelenterazine H (Uptima, MontLucon, France) at a ﬁnal concentration of […]. BRET signals (mB.U,milliBRET Unit) were determined by calculating the ra tio of the light emitted by the acceptor (530 nm) over the light emitted by the donor (475 nm). Background BRET signals, determined by transient transfection of pCMV-Bcl-xL or pCMV-Bax instead of the corresponding pEYFP plasmids, were subtracted from YFP-specific BRET signals. […]

[1] = test system: thymocytes from TCTP^+/− mice; test: Complementation (viability) of γ-irradiated TCTP+/− thymocytes; type: cell-based, mouse; conditions: γ-irradiation 2.5 Gy; overnight culture; 0 to 1000 nM
Source text: Figure 4 Molecular/functional analysis of the h1 (P1) subregion of BH3-TCTP. […]
Peptides used for in vitro assays:
WT-TCTP (11-31): […]
R21A-TCTP (11-31): […]
Hybrid Bax/TCTP: […]
Peptides used for in vivo assays:
WT-TCTP (1-31) : […]
Hybrid Bax-TCTP: […]
TCTP-FLAG peptides used for in vivo assays:
WT-TCTP (1-31)-FLAG : […] DYKDDDDK-OH
TCTP-Bax-TCTP-FLAG: […]-OH […]
subdomain in the BH3 motif is underlined. Peptides were purchased from Smartox […]
Complementation and transduction experiments
In order to complement the haploinsufficient TCTP+/- mice with exogenous TCTP, we took advantage of the fact that the first N-terminal fragment of TCTP functions as a Protein Transduction Domain (PTD), enabling TCTP to penetrate into the cell by a mechanism hitherto […]
not well understood23,27-29. […]
of γ irradiation) and cultured, at a concentration of 10^7 cells/ml, overnight in the presence of […]
20) at concentrations ranging from 0-1000nM. For the transduction assays using WT-TCTP- […]
concentrations were 10 microM, 50 microM and 100 microM.
γ-irradiated thymocytes were fixed by adding 500ul of PFA 4% and incubated for 20 min at room temperature. The cells were washed twice with PBS and permeabilized for 10 min with 0.2% triton X-100 in PBS at room temp. The cells were washed twice with PBS. Proteins were blocked in Blocking buffer (1% BSA 0.5% Tween in PBS) 1h at room temperature. The primary antibody was added with blocking buffer and placed in a rotating wheel overnight in a cold room.
Cells were then washed 3 times with PBS and incubated with secondary antibody with blocking buffer 1h at room temperature. The cells were washed 3 times with PBS and suspended in 200 µL PBS and used for Flow Cytometry or further used for immunohistochemistry: 5 µl of each sample were mixed with 5 µl of ProLong® Gold antifade reagent (Life Technologies) and visualized, using the IX73 inverted fluorescence microscope and the cellSens™ Dimension […]
FACS analysis (BD Accuri™ C6 Cytometer (BD Biosciences) of incorporation of exogenous

With “TCTP: Translationally Controlled Tumor Protein (TCTP/tpt1), recombinant full-length” the “BRET signals with BAX” value (BAX) was “no specific BRET signals” and the “rescue of TCTP+/− haploinsufficient phenotype / anti-apoptotic function” value [1] was “rescue completely the TCTP^+/− haploinsufficient phenotype”.
